Measurements: patent publication US20200093824A1, “ERBB3 Activators in Hearing Restoration” (University of Rochester, priority 2018, published 2020)
“Also recorded” adds a separate entry of the source.

Assays:
[1] = tested on: retinal pigment epithelium (RPE) cells; conditions: Swoboda, Elliott et al. 2013; cited from earlier work
[2] = tested on: organ of Corti explants (hair cells / supporting cells); assay: Cochlear explant culture with Pa2g4/EBP1 inhibitors: MYO7+ / Atoh1-nGFP cell generation; format: cell-based, mouse; conditions: for Increase in number of MYO7+ cells in the apex / Atoh1-nGFP-positive cells near OHCs: Atoh1-nGFP mouse cochlear explants; for Increase in number of MYO7+ cells in the apex: WS3 or WS6 treatment; for Atoh1-nGFP-positive cells near OHCs: gradient from apex to base; for MYO7+ cell counts at the apex region versus controls: P1-P2 mouse organ of Corti explants, 48-72 hours, WS3 0.01 μM or WS6 0.5 μM vs DMSO, mean per 100 μm, WS6 p=0.0043, WS3 p=0.0060; for Concentration at which effects were observed in culture: application in culture
Description: (§1) Cochleae were isolated from postnatal day 1-day 2 wild type or Atoh1-nGFP mice (Lumpkin, Collisson et al. 2003). The organ of Corti was isolated from the otic capsule, and the nerve tissue and stria vascularis were removed. The organ of Corti was plated on a glass coverslip coated with a 1:10 mixture of Matrigel and DMEM/F12 to promote attachment. Cochlear explants were cultured in a serum-free 1:1 mixture of DMEM and F12, supplemented with Glutamax, N2, and B27. For the treated cochlea, small molecules were added to this culture medium, while the control cochlea was cultured with medium containing DMSO at the same concentration used in the treatments. To measure proliferation, explants were treated with EdU (10 μg/ml) along with the drug or DMSO. Drug-treated explants were cultured for 3 days then fixed in 4% PFA for 30 min.
To quantify WS3 and WS6-treated cochleae, the length of the sensory epithelium was measured using ImageJ software with the overall length determined from the hook to the apex in each sample. The number of myosin VIIa-positive cells or Edu positive cells in the supporting cell region were manually counted. The total number of cells was counted in each of four cochlear segments of 1200-1400 μm (apical, mid-apical, mid-basal, and basal), density (cells per 100 μm) was then calculated for each segment. Statistical analyses were performed using Prism version 7.0 software; comparisons among groups were made by one-way ANOVA followed by Dunnett's multiple-comparisons test for comparing the mean of each group with the mean of a control group.
Our findings with the conditional ErbB2 activation animal models have shown that the constitutive activation of ERBB2 can result in SC expansion and ectopic MYO7+ cell generation. To further validate the crucial role of ERBB2 activation, inventors turned to small molecules to pharmacologically activate the ErbB pathway and determine their effect on SC expansion and HC differentiation. Two compounds, WS3 and WS6, were chosen, as these two analogues promoted cell proliferation in growth arrested cells such as […] and retinal pigment epithelial (RPE) cells (Shen, Tremblay et al. 2013, Swoboda, Elliott et al. 2013). […] To test the effect of these drugs on SCs, they were applied to cochlear explants derived from Atoh1-nGFP reporter mice (Lumpkin, Collisson et al. 2003). […] The number of MYO7+ cells in the apex was increased by 20 cells/100 μm (FIGS. 7A and 7B).

[3] = tested on: p-ERBB2 in MCF-7 cells; assay: Western blot of ERBB2 pathway activation with anti-p-ERBB2 antibody (Y1248); format: cell-based; conditions: MCF-7 breast cancer cells, treated for 15 minutes
Description: FIGS. 8A, 8A′. […] FIG. 8A. Images of the apex region of the P1-P2 organ of Corti cultured for 48-72 hours in the presence of DMSO, WS3 (0.01 μM), or WS6 (0.5 μM). MYO7a (green), SOX2 (red) and EdU (blue) are shown. IHC, inner hair cells; OHC, outer hair cells (FIG. 8A′) Cross section of organ of Corti from FIG. 8A at the yellow line. Scale bar: 25 microns. FIG. 8B. […] FIG. 8C. Western blot analysis of ERBB2 pathway activation was conducted using anti-p-ERBB2 antibody (Y1248) in MCF-7 cells. Cells were treated with WS3 or WS6 for 15 minutes.
To determine if the drug treatments promoted SC proliferation, the compound were applied to cochlear explants from wild type mice at P1-P2 with EdU present to label the proliferating cells. […] To confirm that the effect of the drugs was mediated through ERBB2 activation, the ERBB2 phosphorylation was analyzed using the protein lysates from cochlear explant.

[4] = tested on: supporting cells in organ of Corti explants; assay: Cochlear explant culture with Pa2g4/EBP1 inhibitors: EdU supporting cell proliferation; format: cell-based; conditions: P1-P2 wild type mouse explants, 48-72 hours, WS3 0.01 μM or WS6 0.5 μM vs DMSO, gradient from apex to base
Description: as §1
To quantify WS3 and WS6-treated cochleae, the length of the sensory epithelium was measured using ImageJ software with the overall length determined from the hook to the apex in each sample. The number of myosin VIIa-positive cells or Edu positive cells in the supporting cell region were manually counted. The total number of cells was counted in each of four cochlear segments of 1200-1400 μm (apical, mid-apical, mid-basal, and basal), density (cells per 100 μm) was then calculated for each segment. […]

[5] = tested on: rodent diabetes model; conditions: by promoting cell proliferation, Shen, Tremblay et al. 2013; cited from earlier work

Row | SMILES | Expansion of retinal pigment epithelium (RPE) cells [1] | Increase in number of MYO7+ cells in the apex [2] [cells/100 μm] | Atoh1-nGFP-positive cells near OHCs [2] | MYO7+ cell counts at the apex region versus controls [2] | Concentration at which effects were observed in culture [2] [nM] | p-ERBB2 level [3] | EdU+ cells in the SOX2+ supporting cell region [4] | β-cell mass [5]
1 | CN1CCN(Cc2ccc(NC(=O)Nc3ccc(Oc4cc(NC(=O)C5CC5)ncn4)cc3)cc2C(F)(F)F)CC1 [WS3] | expands retinal pigment epithelium (RPE) cells | 20 | additional Atoh1-nGFP-positive cells near OHCs were seen | Significantly more MYO7+ cells | 10 | elevated | A large number of EdU+ cells were observed; also recorded: significantly more SCs | 
2 | CN1CCN(Cc2ccc(NC(=O)Cc3ccc(Oc4cc(NC(=O)C5CC5)ncn4)cc3)cc2C(F)(F)F)CC1 [WS6] |  | 20 | additional Atoh1-nGFP-positive cells near OHCs were seen | Significantly more MYO7+ cells | 500 | elevated | A large number of EdU+ cells were observed; also recorded: significantly more SCs | increases p3-cell mass
